Measured values reported in patent US8586579B2, “Anellated pyridine compounds” (Hoffmann-La Roche Inc., priority 2010, dated 2013).
Read-outs that look alike come from different tables or passages of the source.

Key:
human D2 receptor = human D2 receptor (Homo sapiens (Human), UniProt P14416); test: Radioligand binding assay, [3H]-spiperone, human D2 receptor; conditions: membranes of HEK293 EBNA cells expressing human D2; 0.7 nM [3H]-spiperone
Procedure: (§1) HEK293 EBNA cells were transiently transfected with expression plasmids encoding for the human D2 or D3 or for the human 5-HT2A receptor, respectively. The cells were harvested 48 h post-transfection, washed three times with cold PBS and stored at −80° C. prior to use. The pellet was suspended in cold 50 mM Tris-HCl buffer comprising 10 mM EDTA (pH 7.4) and was homogenized with a Polytron (Kinematica AG, Basel, Switzerland) for 20-30 sec at 12.000 rpm. After centrifugation at 48.000×g for 30 min at 4° C., the pellet was resuspended in cold 10 mM Tris-HCl buffer comprising 0.1 mM EDTA (pH 7.4), homogenized, and centrifuged as above. This pellet was further resuspended in a smaller volume of ice cold 10 mM Tris-HCl buffer comprising 0.1 mM EDTA (pH 7.4) and homogenized with a Polytron for 20-30 sec at 12.000 rpm. The protein content of this homogenate was determined with the Bio-Rad (Bradford) Protein Assay (Biorad Laboratories GmbH, München, Germany) according to the instructions of the manufacturer using gamma globulin as the standard. This homogenate was stored at −80° C. in aliquots and thawed immediately prior to use.
(§2) Aliquots of membrane preparations were thawed at RT, resuspended in assay buffer (D2, D3: 50 mM Tris-HCl, 120 mM NaCl, 5 mM MgCl2, 1 mM EDTA, 5 mM KCl, 1.5 mM CaCl2, pH=7.4; 5-HT2A: 50 mM Tris-HCl, 10 mM MgCl2, 1 mM EGTA, pH=7.4), homogenized with a Polytron for 20-30 sec at 12.000 rpm and adjusted to a final concentration of approximately 7.5 μg protein/well (D2, D3) and 15 μg protein/well (5-HT2A), respectively.
(§3) The binding affinity (Ki) of the compounds was determined using radioligand binding. Membranes were incubated in a total volume of 200 μl with a fixed concentration of radioligand (final concentration approximately 0.7 nM [^3H]-spiperone for D2, 0.5 nM [^3H]-spiperone for D3, and 1.1 nM [^3H]-ketanserin for 5-HT2A) and ten concentrations of test compound in ranging between 10 μM-0.1 nM for 1 h at RT. […] The nonspecific binding was determined with equally composed reaction mixtures in the presence of 10 μM unlabelled spiperone. Per well 45 μl of Microscint 40 (Perkin Elmer, Schwerzenbach, Switzerland) was added, plates for sealed, shaken for 20 min and counted for 3 min on a Topcount Microplate Scintillation Counter (Can berra Packard SA, Zürich, Switzerland) with quenching correction.
(§4) The CPM value for each duplicate of a concentration of competing compound was averaged (y1), then the % specific binding was calculated according to the equation (((y1−non-specific)/(total binding−non-specific))×100). Graphs were plotted with the % specific binding using XLfit, a curve fitting program that iteratively plots the data using Levenberg-Marquardt algorithm. […] The affinity constant (K) was calculated using the Cheng-Prusoff equation Ki=(IC50/1+([L]/Kd), where [L] is the concentration of radioligand and Kd is the dissociation constant of the radioligand at the receptor as determined by the saturation isotherm.

human D3 receptor = human D3 receptor (Homo sapiens (Human), UniProt P35462); test: Radioligand binding assay, [3H]-spiperone, human D3 receptor; conditions: membranes of HEK293 EBNA cells expressing human D3; 0.5 nM [3H]-spiperone
human D3 receptor, sequence (P35462 whole entry): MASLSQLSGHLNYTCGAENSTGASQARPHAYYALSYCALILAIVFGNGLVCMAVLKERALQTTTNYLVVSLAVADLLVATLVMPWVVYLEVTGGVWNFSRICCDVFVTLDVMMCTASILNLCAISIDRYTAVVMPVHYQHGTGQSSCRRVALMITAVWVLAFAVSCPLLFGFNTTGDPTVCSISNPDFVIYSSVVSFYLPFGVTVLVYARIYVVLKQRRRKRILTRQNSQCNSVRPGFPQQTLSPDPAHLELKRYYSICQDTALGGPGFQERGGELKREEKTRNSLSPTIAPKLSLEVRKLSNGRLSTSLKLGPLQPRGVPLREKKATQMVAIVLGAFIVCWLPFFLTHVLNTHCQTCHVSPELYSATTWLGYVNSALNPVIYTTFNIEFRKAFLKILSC
Procedure: as §1, §2, §3
as §4, with “algorithm. The single site competition analysis equation used was y=A+((B−A)/(1+((x/C)D))), where y is the % specific binding, A is the minimum y, B is the maximum y, C is the IC50, x is the log 10 of the concentration of the competing compound and D is the slope of the curve (the Hill Coefficient).” for “algorithm.”

human 5-HT2A receptor = human 5-HT2A receptor (Homo sapiens (Human), UniProt P28223); test: Radioligand binding assay, [3H]-ketanserin, human 5-HT2A receptor
human 5-HT2A receptor, sequence (P28223 whole entry): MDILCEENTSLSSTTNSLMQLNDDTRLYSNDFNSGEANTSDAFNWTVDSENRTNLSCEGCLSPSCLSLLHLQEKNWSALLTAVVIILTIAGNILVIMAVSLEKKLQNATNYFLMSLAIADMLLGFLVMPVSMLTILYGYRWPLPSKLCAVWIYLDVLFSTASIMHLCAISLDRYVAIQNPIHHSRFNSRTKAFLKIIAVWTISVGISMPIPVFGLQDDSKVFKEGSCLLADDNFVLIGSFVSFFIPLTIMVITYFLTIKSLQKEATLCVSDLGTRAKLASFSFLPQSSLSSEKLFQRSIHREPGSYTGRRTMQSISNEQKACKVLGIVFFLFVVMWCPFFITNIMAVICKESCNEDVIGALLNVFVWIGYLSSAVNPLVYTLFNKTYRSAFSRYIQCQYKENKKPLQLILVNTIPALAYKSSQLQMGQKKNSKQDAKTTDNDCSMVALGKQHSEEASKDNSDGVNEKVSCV
Procedure: as §1, §2, §3
as §4, with “algorithm. The single site competition analysis equation used was y=A+((B−A)/(1+((x/C)D))), where y is the % specific binding, A is the minimum y, B is the maximum y, C is the IC50, x is the log 10 of the concentration of the competing compound and D is the slope of the curve (the Hill Coefficient).” for “algorithm.”

[1] = membranes of HEK293 EBNA cells expressing human 5-HT2A, 1.1 nM [3H]-ketanserin

human D2 receptor, sequence (P14416 whole entry): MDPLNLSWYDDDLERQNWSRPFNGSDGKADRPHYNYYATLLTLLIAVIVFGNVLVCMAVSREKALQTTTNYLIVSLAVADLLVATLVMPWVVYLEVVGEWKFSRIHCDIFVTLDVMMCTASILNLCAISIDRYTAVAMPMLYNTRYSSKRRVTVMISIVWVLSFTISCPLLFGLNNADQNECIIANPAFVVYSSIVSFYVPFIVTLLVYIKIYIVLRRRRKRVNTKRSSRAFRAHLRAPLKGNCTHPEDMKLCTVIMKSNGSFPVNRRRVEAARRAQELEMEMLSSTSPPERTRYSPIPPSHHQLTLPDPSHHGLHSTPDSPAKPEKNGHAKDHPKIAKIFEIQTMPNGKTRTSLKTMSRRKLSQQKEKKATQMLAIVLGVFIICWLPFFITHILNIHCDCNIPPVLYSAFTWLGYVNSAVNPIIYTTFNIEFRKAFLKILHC

Row | Structure (SMILES) | Ki (human D2 receptor) [nM] | Ki (human D3 receptor) [nM] | Ki (human 5-HT2A receptor; [1]) [nM] | melting point [°C] | Ki (human 5-HT2A receptor) [nM]
1 | Cc1cc2c(c(N3CCN(CC[C@H]4CC[C@H](NC(=O)C5CCOCC5)CC4)CC3)n1)CCO2 [Example 101, Tetrahydro-pyran-4-carboxylic acid trans-(4-{2-[4-(6-methyl-2,3-dihydro-furo[3,2-c]pyridin-4-yl)-piperazin-1-yl]-ethyl}-cyclohexyl)-amide] | 1950 | 34.6 | 58.5 | 234.5 | 
2 | O=C(N[C@H]1CC[C@H](CCN2CCN(c3nccc4c3CCO4)CC2)CC1)c1ccc(-c2ccccc2)cc1 [Example 134, Biphenyl-4-carboxylic acid trans-(4-{2-[4-(2,3-dihydro-furo[3,2-c]pyridin-4-yl)-piperazin-1-yl]-ethyl}-cyclohexyl)-amide] | 1130 | 18.6 | 23.4 | 232 | 
3 | Cc1cnc(N2CCN(CC[C@H]3CC[C@H](NC(=O)C4CCOCC4)CC3)CC2)c2ccoc12 [Example 105, trans-Tetrahydro-pyran-4-carboxylic acid (4-{2-[4-(7-methyl-furo[3,2-c]pyridin-4-yl)-piperazin-1-yl]-ethyl}-cyclohexyl)-amide] | 1130 | 72.7 |  | 228 | 5.67
4 | CC(=O)N[C@H]1CC[C@H](CCN2CCN(c3nc(C)cc4c3CCO4)CC2)CC1 [Example 100, trans-N-(4-{2-[4-(6-Methyl-2,3-dihydro-furo[3,2-c]pyridin-4-yl)-piperazin-1-yl]-ethyl}-cyclohexyl)-acetamide] | 915 | 7.58 | 215 | 217.5 | 
5 | O=C(Cc1noc2ccccc12)N[C@H]1CC[C@H](CCN2CCN(c3nccc4c3CCO4)CC2)CC1 [Example 129, trans-2-Benzo[d] isoxazol-3-yl-N-(4-{2-[4-(2,3-dihydro-furo[3,2-c]pyridin-4-yl)-piperazin-1-yl]-ethyl}-cyclohexyl)-acetamide] | 1310 | 14.9 |  | 217.5 | 27.8
6 | O=S(=O)(N[C@H]1CC[C@H](CCN2CCN(c3nccc4c3CCO4)CC2)CC1)c1ccccc1 [Example 138, trans-N-(4-{2-[4-(2,3-Dihydro-furo[3,2-c]pyridin-4-yl)-piperazin-1-yl]-ethyl}-cyclohexyl)-benzenesulfonamide] | 243 | 15.5 | 70.5 | 168.5 | 
7 | CC(C)(C)CC(=O)N[C@H]1CC[C@H](CCN2CCN(c3nccc4c3CCO4)CC2)CC1 [Example 72, trans-N-(4-{2-[4-(2,3-Dihydro-furo[3,2-c]pyridin-4-yl)-piperazin-1-yl]-ethyl}-cyclohexyl)-3,3-dimethyl-butyramide] | 444 | 17 | 16.2 | 192.5 | 
8 | O=C(CC1CC1)N[C@H]1CC[C@H](CCN2CCN(c3nccc4c3CCO4)CC2)CC1 [Example 51, trans-2-Cyclopropyl-N-(4-{2-[4-(2,3-dihydro-furo[3,2-c]pyridin-4-yl)-piperazin-1-yl]-ethyl}-cyclohexyl)-acetamide] | 587 | 5.07 |  | 193 | 13.7
9 | O=C(N[C@H]1CC[C@H](CCN2CCN(c3nccc4c3CCO4)CC2)CC1)C(F)(F)F [Example 79, trans-N-(4-{2-[4-(2,3-Dihydro-furo[3,2-c]pyridin-4-yl)-piperazin-1-yl]-ethyl}-cyclohexyl)-2,2,2-trifluoro-acetamide] | 773 | 47.3 | 19.2 | 213 | 
10 | O=C(N[C@H]1CC[C@H](CCN2CCN(c3nccc4c3CCO4)CC2)CC1)C1CC1 [Example 63, Cyclopropanecarboxylic acid trans-(4-{2-[4-(2,3-dihydro-furo[3,2-c]pyridin-4-yl)-piperazin-1-yl]-ethyl}-cyclohexyl)-amide] | 486 | 18.5 | 11.1 | 213 | 
11 | CCC(C)C(=O)N[C@H]1CC[C@H](CCN2CCN(c3nccc4c3CCO4)CC2)CC1 (mixture of isomers) [Example 76, trans-N-(4-{2-[4-(2,3-Dihydro-furo[3,2-c]pyridin-4-yl)-piperazin-1-yl]-ethyl}-cyclohexyl)-rac-2-methyl-butyramide] | 709 | 25.4 | 13.2 | 205.5 | 
12 | COCCC(=O)N[C@H]1CC[C@H](CCN2CCN(c3ncc(C)c4c3CCO4)CC2)CC1 [Example 111, trans-3-Methoxy-N-(4-{2-[4-(7-methyl-2,3-dihydro-furo[3,2-c]pyridin-4-yl)-piperazin-1-yl]-ethyl}-cyclohexyl)-propionamide] | 3560 | 46.8 | 37 | 163.5 | 
13 | C[C@]1(O)CC[C@@H](C(=O)N[C@H]2CC[C@H](CCN3CCN(c4nccc5c4CCO5)CC3)CC2)CC1 [Example 55, cis-4-Hydroxy-4-methyl-cyclohexanecarboxylic acid trans-(4-{2-[4-(2,3-dihydro-furo[3,2-c]pyridin-4-yl)-piperazin-1-yl]-ethyl}-cyclohexyl)-amide] | 475 | 45.3 | 6.14 | 216.5 | 
14 | O=C(N[C@H]1CC[C@H](CCN2CCN(c3nccc4c3CCO4)CC2)CC1)c1ccc(-n2cccn2)cc1 [Example 126, trans-N-(4-{2-[4-(2,3-Dihydro-furo[3,2-c]pyridin-4-yl)-piperazin-1-yl]-ethyl}-cyclohexyl)-4-pyrazol-1-yl-benzamide] | 478 | 44.3 | 35.9 | 229 | 
15 | Cc1cc(C(=O)N[C@H]2CC[C@H](CCN3CCN(c4nccc5c4CCO5)CC3)CC2)on1 [Example 85, 3-Methyl-isoxazole-5-carboxylic acid trans-(4-{2-[4-(2,3-dihydro-furo[3,2-c]pyridin-4-yl)-piperazin-1-yl]-ethyl}-cyclohexyl)-amide] | 397 | 31.1 |  | 218 | 15.7
16 | CS(=O)(=O)N[C@H]1CC[C@H](CCN2CCN(c3nccc4c3CCO4)CC2)CC1 [Example 48, trans-N-(4-{2-[4-(2,3-Dihydro-furo[3,2-c]pyridin-4-yl)-piperazin-1-yl]-ethyl}-cyclohexyl)-methanesulfonamide] | 1270 | 31.6 | 21.7 | 220 | 
17 | CN(C)C(=O)CCC(=O)N[C@H]1CC[C@H](CCN2CCN(c3nccc4c3CCO4)CC2)CC1 [Example 86, trans-N-(4-{2-[4-(2,3-Dihydro-furo[3,2-c]pyridin-4-yl)-piperazin-1-yl]-ethyl}-cyclohexyl)-N′,N′-dimethyl-succinamide] | 2560 | 37.6 | 23.9 | 188 | 
18 | C/C=C/CC(=O)N[C@H]1CC[C@H](CCN2CCN(c3nccc4c3CCO4)CC2)CC1 [Example 81, (E)-Pent-3-enoic acid trans-(4-{2-[4-(2,3-dihydro-furo[3,2-c]pyridin-4-yl)-piperazin-1-yl]-ethyl}-cyclohexyl)-amide] | 945 | 12.9 | 22.8 | 175.5 | 
